Assay results published in paper PMC3983190, “Chemical Derivatives of a Small Molecule Deubiquitinase Inhibitor Have Antiviral Activity against Several RNA Viruses” (PLoS ONE, 2014).
Converted amounts (≈) assume the structure as drawn. Where two headings read alike, the source gives them in different places.

Columns and labels:
[1] = WST-1 cellular toxicity assay, HG23 replicon-bearing cells; format: cell-based; conditions: human, HG23 Norwalk virus replicon-bearing cells, WST-1 viability
RNA viruses = experiment: Antiviral activity across the panel of RNA viruses tested; format: cell-based; conditions: 5 µM
Text: (§1) Cells were freeze-thawed twice.

[2] = mouse
[3] = WST-1 cellular toxicity assay, bone marrow-derived macrophages; conditions: Swiss Webster, mouse
[4] = Aqueous solubility as per Lipinski et al.; conditions: for solubility: kinetic from dmso stock
La Crosse virus (LCV) = experiment: La Crosse virus infection of Be2-c cells, plaque assay; format: cell-based; conditions: 5 µM, 30 minutes pre-treatment, MOI 5, 12 hours
Text: as §1

[5] = test system: Encephalomyocarditis virus (EMCV); experiment: Encephalomyocarditis virus infection of Vero cells, plaque assay; format: cell-based; conditions: 5 µM, 30 minutes pre-treatment, MOI 5, 12 hours
Text: as §1

Sindbis virus = Sindbis virus infection of Vero cells, plaque assay; format: cell-based; conditions: 5 µM, 30 minutes pre-treatment, MOI 5, 12 hours
Text: as §1

Tulane virus = Tulane virus infection of LLC-MK2 cells, plaque assay; format: cell-based; conditions: 5 µM, 30 minutes pre-treatment, MOI 5, 24 hours
Text: as §1

MNV-1 [6] = conditions: 5 µM; for decrease in MNV-1 titers compared to DMSO: 30 minute pre-treatment, RAW 264.7, 8 hours; for viral titer decrease compared to DMSO: administered 1 hour post infection, RAW 264.7
Norwalk virus = experiment: HuNoV replicon assay in HG23 cells, Norwalk virus genomes by qRT-PCR; conditions: for reduction of detectable Norwalk virus genomes compared to DMSO: 5 µM, 24 hours, HG23 cells; for EC50: Norwalk virus, HG23, 24 h, read-out: EC50 HG23
[7] = test system: Vesicular Stomatitis Virus (VSV); format: cell-based
MNV-1 [8] = conditions: previously determined by the authors; cited from earlier work
in vitro [9] = conditions: mouse
in vitro [10] = conditions: Swiss Webster, mouse
physchem = conditions: kinetic from dmso stock

SMILES | CC50 at 24 h [1] | antiviral activity against any of the viruses tested (RNA viruses) | CC50 [2] | CC50 [3] | solubility [4] | effect on La Crosse virus infectious titers (La Crosse virus (LCV)) | effect on EMCV infectious titers [5] | effect on Sindbis virus infectious titers (Sindbis virus) | effect on Tulane virus infectious titers (Tulane virus) | expected aqueous solubility (not determined, limited availability) ([4]; relative to WP1130) | decrease in MNV-1 titers compared to DMSO (MNV-1 [6]) | viral titer decrease compared to DMSO (MNV-1 [6]) | reduction of detectable Norwalk virus genomes compared to DMSO (Norwalk virus) | EC50 (Norwalk virus) | inhibition of VSV infection [7] | EC50 (MNV-1 [8]) | CC50 (in vitro [9]) | CC50 (in vitro [10]) | solubility (physchem)
CCC[C@H](NC(=O)/C=C/c1cccc(Br)n1)c1ccccc1 [Compound 1] | 7.2 µM | no antiviral activity | 24.7 µM | 10.4 µM |  |  |  |  |  |  |  |  |  |  |  |  |  |  | 
CCC[C@H](NC(=O)C(C#N)Cc1cccc(Br)n1)c1ccccc1 (stereo partly drawn) [Compound 2] | 8.71 µM | no antiviral activity | 24.9 µM | 8.53 µM |  |  |  |  |  |  |  |  |  |  |  |  |  |  | 
CCCC(NC(=O)/C(C#N)=C/c1cccc(Br)n1)c1ccc(OCCN(C)C)cc1 (stereo not drawn) [Compound 3] | 7.82 µM | no effect | 9.43 µM | 6.12 µM | 19 µM (≈ 8.96 µg/mL) |  |  |  |  |  |  |  |  |  |  |  |  |  | 
CCC(NC(=O)/C(C#N)=C/c1cccc(Br)n1)c1ccc(O)cc1 (stereo not drawn) [Compound 4] | 9.26 µM |  | 11 µM | 15.2 µM |  | only effective against Tulane virus | only effective against Tulane virus | only effective against Tulane virus | effective | more soluble than WP1130 but less soluble than compound 7 | 1.95 log | 1.73 log | approximately 30% | 6.52 µM |  |  |  |  | 
CCCC(NC(=O)/C(C#N)=C/c1cccnc1F)c1ccc(OCCN2CCOCC2)cc1 (stereo not drawn) [Compound 5] | 7.61 µM |  | 15.4 µM | 11.3 µM | 14 µM (≈ 6.34 µg/mL) | only effective against Tulane virus | only effective against Tulane virus | only effective against Tulane virus | effective |  | 2.52 log | 2.67 log | about 64% | 4.28 µM |  |  |  |  | 
CCCC(NC(=O)/C(C#N)=C/c1ccccn1)c1ccc(OCCN2CCOCC2)cc1 (stereo not drawn) [Compound 6] | 10.4 µM |  | 7.46 µM | 11.1 µM | 160 µM (≈ 69.5 µg/mL) | significantly reduced infectious titers | significantly reduced infectious titers | significantly reduced infectious titers | significantly reduced infectious titers |  | 2.55 log | 2.50 log | about 64% | 4.17 µM |  |  |  |  | 
CCCC(NC(=O)/C(C#N)=C/c1cccc(F)n1)c1ccc(OCCN2CCOCC2)cc1 (stereo not drawn) [Compound 7] | 6.12 µM |  | 13.7 µM | 7.11 µM | 14 µM (≈ 6.34 µg/mL) | significantly decreased infection | not of EMCV, although a trend towards antiviral activity was present | significantly decreased infection | significantly decreased infection |  | 2.60 log | 1.51 log | ~80% | 3.37 µM |  |  |  |  | 
CCC[C@H](NC(=O)/C(C#N)=C/c1cccc(Br)n1)c1ccccc1 [WP1130, reference compound] | 6.2 µM |  |  |  |  | significantly reduced infectious titers | significantly reduced infectious titers | significantly reduced infectious titers | significantly reduced infectious titers |  | 2.0 log |  |  |  | not inhibited | 5.06 µM | 9.95 µM | 6.46 µM | ~3.2 µM (≈ 1.23 µg/mL)
